Values after ≈ are worked out from the molar mass of the structure shown.
Tested on: P388
Test: Cytotoxicity against mouse P388 cells by MTT assay
Format: functional, cell-based

Compared with `COC(=O)C[C@H]1C(C)(C)[C@H](OC(=O)c2ccccc2)[C@@H]2C=C3C4=CC(=O)O[C@@H](c5ccoc5)[C@]4(C)CC[C@@H]3[C@@]1(C)C2=O` [ERYTHROCARPINE A], `COC(=O)C[C@H]1C(C)(C)[C@H](OC(=O)c2ccccc2)[C@@H]2C=C3[C@H](CC[C@@]4(C)[C@H](c5ccoc5)OC(=O)C[C@@]34O)[C@@]1(C)C2=O` [ERYTHROCARPINE B] is 3-fold higher in IC50: 2 µg/mL (≈ 3.49 µM) for the first, 6 µg/mL (≈ 10.2 µM) for the second.

Going from `COC(=O)C[C@H]1C(C)(C)[C@H](OC(=O)/C=C/c2ccccc2)[C@@H]2C=C3[C@H](CC[C@@]4(C)[C@H](c5ccoc5)OC(=O)C[C@@]34O)[C@@]1(C)C2=O` [ERYTHROCARPINE C] to `COC(=O)C[C@H]1[C@@]2(C)CO[C@]3(O)[C@@H](C=C4[C@H](CC[C@@]5(C)[C@H](c6ccoc6)OC(=O)C[C@@]45O)[C@]13C)[C@H]2OC(=O)/C=C/c1ccccc1` [ERYTHROCARPINE E], the IC50 rises from 9.9 µg/mL (≈ 16.1 µM) to 16 µg/mL (≈ 25.3 µM) (1.6-fold).

Going from `COC(=O)C[C@H]1[C@@]2(C)CO[C@]3(O)[C@@H](C=C4C5=CC(=O)O[C@@H](c6ccoc6)[C@]5(C)CC[C@@H]4[C@]13C)[C@H]2OC(=O)/C=C/c1ccccc1` [ERYTHROCARPINE D] to `CO[C@@]12[C@H](COC(N)=O)C3=C(C(=O)C(C)=C(N)C3=O)N1C[C@@H]1N[C@@H]12` [MITOMYCIN], the IC50 falls from 10 µg/mL (≈ 16.3 µM) to 0.15 µg/mL (≈ 0.449 µM) (67-fold).

— ChEMBL document CHEMBL1149627, “Erythrocarpines A-E, new cytotoxic limonoids from Chisocheton erythrocarpus” (Bioorg Med Chem, 2007)
